Assays:
E6 = E6 (Human papillomavirus type 16, UniProt P03126); details: SPR
Procedure: p53 or E6 (R&D systems) were suspended in 10 mM sodium acetate pH 5.0 and amine linked to a Biacore CM5 chip (GE systems). Free reactive amines were then blocked with ethanolamine. Compound 4 was diluted in HBS P buffer (GE systems) at concentrations 1–30 μM and run over the chip. The association time was monitored for 300s and disassociation time for 1000 sec. After each run, the chip was regenerated using 10 mM glycine pH 3.0. The sensograms were fit to a one-ligand model to determine the Ka and Kd.

p53 = molecular target: T1, p53 (Homo sapiens, UniProt P04637, R273C); test: Nuclear/cytoplasmic fractionation and Western analysis of p53; format: cell-based; details: C33a cells, 6 hrs, Western
T1 construct: endogenous in cells; host or cells: C33a
Procedure: For nuclear/cytoplasmic fractionation, 1 × 10^7 C33a cells were treated with 30 μM compound for 6 hrs. The cells were washed with PBS and lysed in 1000 μL of cytoplasmic extraction buffer (10 mM KCl, 10 mM HEPES, pH 7.9, 0.1 mM EDTA, 1 mM dithiothreitol) and incubated on ice for 20 min. 50 μL of 10% NP-40 was added to each lysate, vortexed and then centrifuged at 12,000 × g for 10 min. The cytosolic fraction was collected and the pellet containing the nuclei suspended in 50 μL of nuclear extraction buffer (0.4 M NaCl, 20 mM HEPES, pH 7.9, 1 mM EDTA). The nuclear fraction was incubated for 30 min on ice. The samples were spun at 14,000 × g for 10 min and the supernatants were collected. To concentrate the cytoplasmic fraction, 500 μL methanol, and 200 μL chloroform were added and the samples were vortexed, centrifuged for 10 min at 14,000 × g, and the upper and lower layer were discarded. The solid interphase was collected and suspended in 50 μL of lysis buffer. Equal cell equivalents were loaded on a gel and electrophoresed. For whole cell lysates, C33a cells were lysed with a modified RIPA buffer and subjected to SDS-PAGE electrophoresis. The gels were transferred to nitrocellulose and blots probed with antibodies for p53 (Santa Cruz, antibody FL-303), lamin A/C, and calnexin (Santa Cruz Biotechnology).

PUMA = PUMA transcription by qRT-PCR; format: cell-based; details: 30 μM, 8h
Text: RNA from C33a and HeLa was isolated by Trizol and reverse transcribed using the first strand synthesis kit from NEB. Primers for p53, GAPDH and PUMA were used for quantitative real-time PCR (qRT-PCR). Primer sequences include: PUMA (forward primer: CTCAACGCACAGTACGAG and reverse primer: […]), FAS (forward primer: TCTGCCATAAGCCCTGT and reverse primer: GTCTGTGTACTCCTTCCCT), p21 (forward primer: […] and reverse primer: […]), and BAX (forward primer: […] and reverse primer: […]). ΔΔCt values were determined for PUMA using GAPDH to normalize data. Bio-rad SYBR green was used for the amplification and detection of the PCR products on an iCycler (Bio-rad).

PUMA promoter = test: ChIP-qPCR of p53 binding to the PUMA promoter; format: cell-based; details: 8 hrs
Procedure: Cells treated with the indicated compounds for 8 hrs, harvested and ChIP was carried using a Chromatin Immunoprecipitation Assay Kit (EMD Millipore). p53-DNA complexes were immunoprecipitated using a mouse monoclonal DO-1 antibody (Santa Cruz) and incubated overnight at 4°C. qPCR amplifications was performed using the primer sequences Puma forward 5’- […], reverse 5’- […].

HeLa cells = test: Cell viability (Cell Titer Glo), HeLa; format: cell-based
Procedure: (§1) For the viability assays, 20,000 C33a, HeLa, or siHA cells were plated in white 96 well flat bottom plates. The cells were treated with compounds at concentrations from 0.5 to 30 μM for 48 hrs. After incubation, Cell Titer Glo (Promega) was added to the cells and luminescence read in a Tecan II plate reader. For annexin V and PI staining, 500,000 C33a cells were treated with inhibitor for 24 hrs. The cells were stained with Annexin V-FITC and PI according to eBioscience manufacturer’s instructions and analyzed by flow cytometry.

MCF7 cells = test: Cell viability, MCF7; format: cell-based; details: MCF7, wild type p53
HCT116 cells = test: Cell viability, HCT116 (wtHCT116 and p53-null mutHCT116); format: cell-based
C33a cells [1] = test: Cell viability after p53 siRNA knockdown; format: cell-based; details: p53 siRNA vs scrambled, 10 μM, 48 hrs
Procedure: C33a cells were transfected with 100 pmol siRNA for p53 (Dharmacon, L-003329-00-0005) or AllStar control (Qiagen) using lipofectamine2000 according to manufacturer’s instructions. The cells were incubated for 24 hrs and then split and incubated with 10 μM compounds. Cell viability was measured after 48 hours by Cell Titer Glo. Efficiency of knockdown was determined by quantitative RT-PCR using SYBR green.

C33a cells [2] = test: Annexin V/PI staining by flow cytometry; format: cell-based
Procedure: as §1

C33a cells [3] = test: Cell cycle distribution by PI staining; format: cell-based
p73 = molecular target: T2, p73 (Homo sapiens, UniProt O15350); test: p73 nuclear accumulation by Western analysis; format: cell-based; details: mutHCT116 cells, 6h
T2 construct: endogenous in cells; host or cells: HCT116 (p53-null mutHCT116 and wtHCT116)
T2 sequence (O15350 1-636): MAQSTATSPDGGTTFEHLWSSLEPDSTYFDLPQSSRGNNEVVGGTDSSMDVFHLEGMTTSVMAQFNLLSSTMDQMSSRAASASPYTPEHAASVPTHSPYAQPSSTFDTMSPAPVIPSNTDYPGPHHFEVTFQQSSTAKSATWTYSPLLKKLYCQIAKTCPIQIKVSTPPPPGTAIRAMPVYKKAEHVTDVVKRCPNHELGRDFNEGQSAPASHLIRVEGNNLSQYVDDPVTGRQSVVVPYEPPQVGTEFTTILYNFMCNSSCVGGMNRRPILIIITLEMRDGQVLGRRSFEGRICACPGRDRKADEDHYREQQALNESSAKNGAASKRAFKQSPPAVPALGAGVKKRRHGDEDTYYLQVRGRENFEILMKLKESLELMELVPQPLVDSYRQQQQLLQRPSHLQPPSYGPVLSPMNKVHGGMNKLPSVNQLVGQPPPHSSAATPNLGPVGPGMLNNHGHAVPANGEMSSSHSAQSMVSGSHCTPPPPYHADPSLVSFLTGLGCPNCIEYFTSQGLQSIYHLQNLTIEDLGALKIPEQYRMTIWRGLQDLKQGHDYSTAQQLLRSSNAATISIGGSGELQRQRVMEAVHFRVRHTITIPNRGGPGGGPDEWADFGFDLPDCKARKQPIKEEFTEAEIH

Sequence of E6 (P03126 whole entry): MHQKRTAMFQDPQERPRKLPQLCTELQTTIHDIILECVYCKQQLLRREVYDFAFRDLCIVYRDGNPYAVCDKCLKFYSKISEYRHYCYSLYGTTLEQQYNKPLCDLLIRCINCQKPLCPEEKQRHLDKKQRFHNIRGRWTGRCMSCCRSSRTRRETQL

SMILES: COc1ccc(/C=C/c2ccc3cccc(O)c3n2)cc1OC [compound 4]
- fold lesser affinity for E6 than for p53 (E6; E6 versus p53): 16 fold
- Kd (E6; read-out: KD for E6, recombinant E6): 3.2 ± 1 µM
- nuclear accumulation of p53 in nuclear fraction compared to vehicle (p53): higher levels of nuclear accumulation of p53
- PUMA transcription upregulation (PUMA; C33a cells): 2.76±0.29 fold
- PUMA transcription upregulation (PUMA; HeLa cells): 2.04±0.85 fold
- p53 binding to the PUMA promoter compared to controls (PUMA promoter; C33a cells): 38.9±2.4 fold
- p53 binding to the PUMA promoter compared to controls (PUMA promoter; HeLa cells): 31.3±8.7 fold
- cell viability (Fig 5D) (HeLa cells; HeLa): decreased viability
- IC50 (HeLa cells; HeLa cells, 48 hrs, Cell Titer Glo): 4.5 µM
- cell viability at 30 μM (HeLa cells; HeLa, 30 μM, 48h): decreased viability
- cell viability (Fig 5D) (MCF7 cells): decreased viability
- viability of mutHCT116 cells relative to wtHCT116 cells (HCT116 cells; 10 μM, percent viability mutHCT116 divided by wtHCT116): 2.5±0.5 fold
- cell viability (Fig 5D) (HCT116 cells; HCT116, wild type p53): decreased viability
- effect of p53 gene knockdown on C33a sensitivity to compound (C33a cells [1]): significantly reversed
- apoptotic and necrotic cells (C33a cells [2]): increased both the number of apoptotic and necrotic cells
- cell cycle distribution (C33a cells [3]): normal cell cycle distribution
- p73 nuclear accumulation (p73): did not increase p73 nuclear accumulation
